# Results published in patent US20260374818A1, “CATIONIC PEPTIDES WITH BROAD SPECTRUM ACTIVITY” (priority 2023, published 2026).
# Where a SMILES comes first, the peptide text is derived from it. [ ]: non-standard residue; d: D form.
# What was measured:
# [1] = Subdermal murine toxicity model; conditions: for Clinical score: 1 hour after subcutaneous administration, comparator DJK-5
# Procedure, shortened: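 Peptides given subdermally to shaved, depilated, isoflurane-anaesthetised female CD-1 mice (8 weeks, 25±5 g) at 4 mg/kg. Summed clinical scores taken at 1 h; cyst or lesion presence and caliper size recorded at 16 h. Values are the mean of two independent replicates.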
# MRSA USA300 [2] = test: Murine sinusitis model, MRSA; type: in vivo, mouse; methicillin resistant Staphylococcus aureus
# Source text: FIGS. 15A-15I show peptides AB101-D, AB102-D and AB103-D compared to DJK5 in a murine sinusitis model of bacterial infections. MRSA USA300, nasal cavity (FIG. 15A) P. aeruginosa LESB58 (FIG. 15B and FIG. 15C, nasal cavity); MRSA USA300, lung tissue (FIG. 15D) P. aeruginosa LESB58 (FIG. 15E and FIG. 15F, lung tissue); and MRSA USA300, weight change (FIG. 15G) P. aeruginosa LESB58 (FIG. 15H and FIG. 15I, weight change).
# A murine sinusitis model of bacterial infections in the nasal cavity of mice [Alford et al. (2021). Murine model of sinusitis infection for screening antimicrobial and immunomodulatory therapies. Frontiers in Cellular and Infection Microbiology., 11, 621081] was used to determine the efficacy of D-amino acid peptides AB101-D, AB102-D and AB103-D compared to DJK5. […]. Treatment was applied either as dropwise administration of a peptide solution (20 μl) to the infected naris of a mouse (FIGS. 15A, 15B, 15D, 15E, 15G, 15H) or peptide was delivered using a Respimat® inhaler device (FIGS. 15C, 15F, 15I). Mice were monitored and weighed once daily for up to three days then euthanized prior to collection of nasal lavage fluid and lung tissue for bacterial enumeration. The limit of detection is shown by the dotted line at log CFU=2. […] Accordingly, the results indicated enhanced efficacy of D-amino acid peptides AB101-D, AB102-D and AB103-D compared to DJK5 in this murine model.
# MRSA preformed biofilms = test: Biofilm eradication of 24-hr preformed biofilms (TTC metabolic dye), MRSA; type: cell-based, methicillin resistant Staphylococcus aureus; conditions: 24-hr preformed biofilms treated overnight
# [3] = system: Enterococcus faecium #2-1; test: Biofilm inhibition (at least 80%), E. faecium; type: cell-based; conditions: E. faecium #2-1; n = 3; TSB + 1% glucose; 48 hours; crystal violet
# P. aeruginosa LESB58 = test: Murine model of abscess infections; type: in vivo, murine; Pseudomonas aeruginosa
# P. aeruginosa PAO1 = test: Biofilm inhibition (at least 80%), P. aeruginosa; type: cell-based, Pseudomonas aeruginosa; conditions: n = 4, BM2 minimal media, 18-24 hours, crystal violet
# PAO1 preformed biofilms = conditions: for IC50: read-out: Biofilm Eradication IC50, PAO1, 24-hr preformed biofilms treated overnight, TTC
# [4] = system: Enterobacter cloacae 218R1; test: Biofilm inhibition (at least 80%), E. cloacae; type: cell-based; conditions: E. cloacae 218R1; n = 3; BM2 minimal media; 18-24 hours; crystal violet
# [5] = system: Klebsiella pneumonia KPLN649; test: Biofilm inhibition (at least 80%), K. pneumonia; type: cell-based; conditions: K. pneumoniae KPLN649; n = 3; BM2 minimal media; 48 hours; crystal violet
# MRSA USA300 biofilms = test: Biofilm inhibition by >95% pure peptides (crystal violet), MRSA; type: cell-based, methicillin resistant Staphylococcus aureus; conditions: for minimum inhibitory concentration of peptide that inhibited at least 90% of biofilm growth (MBIC90): MRSA USA300 biofilms, >95% pure peptides, 10% TSB + 0.1% glucose; for IC50: MRSA, 24 hours
# MRSA USA300 [6] = test: Biofilm inhibition (at least 80%), MRSA; type: cell-based, methicillin resistant Staphylococcus aureus; conditions: n = 4, 10% TSB + 0.1% glucose, 18-24 hours, crystal violet
# E. coli O157:H7 = test: Biofilm inhibition (at least 80%), E. coli; type: cell-based, Escherichia coli; conditions: n = 3, BM2 minimal media, 18-24 hours, crystal violet
Compound,Clinical score [1],"Average cyst size compared to DJK-5 ([1]; 16 hours after administration, 4 mg/kg)","Bacteria in nasal cavity and lungs (MRSA USA300 [2]; MRSA USA300, 0.1 mg dose, compared to DJK5)",IC50 (MRSA preformed biofilms) [µM],Peptide/Antibiotic Concentration where at least 80% of biofilm growth was inhibited [3] [µg/mL],Abscess size (P. aeruginosa LESB58),Decrease in abscess formation (P. aeruginosa LESB58) [%],Peptide/Antibiotic Concentration where at least 80% of biofilm growth was inhibited (P. aeruginosa PAO1) [µg/mL],"Enhanced antibiofilm eradication activity (PAO1 preformed biofilms; P. aeruginosa, compared with DJK5) [fold]",IC50 (PAO1 preformed biofilms) [µM],Peptide/Antibiotic Concentration where at least 80% of biofilm growth was inhibited [4] [µg/mL],Peptide/Antibiotic Concentration where at least 80% of biofilm growth was inhibited [5] [µg/mL],minimum inhibitory concentration of peptide that inhibited at least 90% of biofilm growth (MBIC90) (MRSA USA300 biofilms) [µM],IC50 (MRSA USA300 biofilms) [µM],Peptide/Antibiotic Concentration where at least 80% of biofilm growth was inhibited (MRSA USA300 [6]) [µg/mL],Peptide/Antibiotic Concentration where at least 80% of biofilm growth was inhibited (E. coli O157:H7) [µg/mL],Weight loss (MRSA USA300 [2]; MRSA USA300 infected mice)
"CC[C@@H](C)[C@@H](NC(=O)[C@@H](C)NC(=O)[C@@H](CCCNC(=N)N)NC(=O)[C@@H](Cc1c[nH]c2ccccc12)NC(=O)[C@@H](CCC(N)=O)NC(=O)[C@H](NC(=O)[C@@H](CCCNC(=N)N)NC(=O)[C@H](NC(=O)[C@H](NC(=O)[C@@H](CCCNC(=N)N)NC(=O)[C@H](NC(=O)[C@H](N)CCCNC(=N)N)C(C)C)C(C)C)[C@H](C)CC)C(C)C)C(N)=O [AB103-D, rvrvirvqwrai-NH2] (H-[dR][dV][dR][dV][dI][dR][dV][dQ][dW][dR][dA][dI]-NH2)",< 2,smaller than those induced by DJK-5,reduced the amount of bacteria in the nasal cavity and lungs of mice much more than DJK5 treatment,2.2,1,reduced abscess size,77,2,> 2,1.7,1,2,1,0.34,0.5,1,
"CC[C@@H](C)[C@@H](NC(=O)[C@@H](C)NC(=O)[C@@H](CCCNC(=N)N)NC(=O)[C@@H](Cc1c[nH]c2ccccc12)NC(=O)[C@@H](CCC(N)=O)NC(=O)[C@H](N)C(C)C)C(=O)N[C@H](CCCNC(=N)N)C(=O)N[C@@H](C(=O)N[C@H](CCCNC(=N)N)C(=O)N[C@@H](C(=O)N[C@@H](C(=O)N[C@H](CCCNC(=N)N)C(N)=O)[C@H](C)CC)C(C)C)C(C)C [DJK5, vqwrairvrvir-NH2] (H-[dV][dQ][dW][dR][dA][dI][dR][dV][dR][dV][dI][dR]-NH2)",2,,,1.6,1,,54,8,,3.8,2,8,0.5,0.35,1,1,did not prevent weight loss
